Experiments:
Test in all cases: relative viability (nuclei count vs DMSO), 5 days (fraction); higher = more cells survive
[1] = compound: CCN1C(=O)C2=CC(=C(N=C2N(C1=O)C3CC3)N)C(=O)N + CC(C)C[C@H](NC(=O)[C@H](Cc1ccccc1)NC(=O)c1cnccn1)B(O)O [Bortezomib] (partner 0.002 µM)
In short: (§1)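 A single step with final 0.05% Triton X-100, 1% formaldehyde and 1 ug/ml Hoechst fixed the cells and stained nuclei 5 days after treatment. Lung cancer cell lines in 1536-well plates had been treated by pin tool the day after seeding with one drug alone or a fixed anchor-drug dose plus five library-drug doses (not always all listed) in √10 steps, and nuclei were counted on 4× images. Relative viability is the ratio of nuclei in treated wells to nuclei in vehicle wells, taken as the median of duplicate plates.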

[2] = compound: CCN1C(=O)C2=CC(=C(N=C2N(C1=O)C3CC3)N)C(=O)N + COc1cccc2cc(-c3nc([C@H]4CC[C@H](C(=O)O)CC4)n4ncnc(N)c34)[nH]c12 [OSI-027] (partner 0.5 µM)
In short: as §1

[3] = compound: CCN1C(=O)C2=CC(=C(N=C2N(C1=O)C3CC3)N)C(=O)N + CS(=O)(=O)CCNCc1ccc(-c2ccc3ncnc(Nc4ccc(OCc5cccc(F)c5)c(Cl)c4)c3c2)o1 [Lapatinib] (partner 2 µM)
In short: as §1

[4] = compound: CCN1C(=O)C2=CC(=C(N=C2N(C1=O)C3CC3)N)C(=O)N + CC1(C)CCC(c2ccc(Cl)cc2)=C(CN2CCN(c3ccc(C(=O)NS(=O)(=O)c4ccc(N[C@H](CCN5CCOCC5)CSc5ccccc5)c(S(=O)(=O)C(F)(F)F)c4)cc3)CC2)C1 [Navitoclax] (partner 0.5 µM)
In short: as §1

[5] = compound: CCN1C(=O)C2=CC(=C(N=C2N(C1=O)C3CC3)N)C(=O)N + CS(=O)(=O)N1CCN(Cc2cc3nc(-c4cccc5[nH]ncc45)nc(N4CCOCC4)c3s2)CC1 [Pictilisib] (partner 1 µM)
In short: as §1

Cell Line | relative viability ([1]; first compound 0.253 µM) | relative viability ([1]; first compound 0.8 µM) | relative viability ([1]; first compound 2.53 µM) | relative viability ([1]; first compound 8 µM) | relative viability ([2]; first compound 0.253 µM) | relative viability ([2]; first compound 0.8 µM) | relative viability ([2]; first compound 2.53 µM) | relative viability ([2]; first compound 8 µM) | relative viability ([3]; first compound 0.253 µM) | relative viability ([3]; first compound 0.8 µM) | relative viability ([3]; first compound 2.53 µM) | relative viability ([3]; first compound 8 µM) | relative viability ([4]; first compound 0.253 µM) | relative viability ([4]; first compound 0.8 µM) | relative viability ([4]; first compound 2.53 µM) | relative viability ([4]; first compound 8 µM) | relative viability ([5]; first compound 0.253 µM) | relative viability ([5]; first compound 0.8 µM) | relative viability ([5]; first compound 2.53 µM) | relative viability ([5]; first compound 8 µM)
NCI-H1915 | 0.968 | 0.93 | 0.955 | 0.955 | 0.636 | 0.638 | 0.6 | 0.679 | 0.952 | 0.942 | 0.974 | 0.922 | 0.738 | 0.799 | 0.752 | 0.711 | 0.953 | 0.843 | 0.953 | 0.904
ChaGo-K-1 | 1.12 | 0.87 | 1.1 | 1.1 | 0.516 | 0.518 | 0.683 | 0.502 | – | – | – | – | 1.05 | 0.782 | 1.11 | 0.958 | 0.916 | 0.563 | 0.91 | 0.766
NCI-H1703 | 0.384 | 0.383 | 0.34 | 0.374 | – | – | – | – | 1.01 | 0.946 | 1.09 | 1.43 | 1.01 | 1.04 | 1.14 | 1.46 | 0.243 | 0.224 | 0.275 | 0.269
LK-2 | – | – | – | – | 0.19 | 0.196 | 0.181 | 0.2 | 0.89 | 0.878 | 0.995 | 1.09 | 0.934 | 0.937 | 0.976 | 1.06 | 0.547 | 0.507 | 0.525 | 0.556
NCI-H661 | 0.809 | 0.9 | 0.793 | 0.942 | 0.773 | 0.742 | 0.681 | 0.677 | 0.526 | 0.631 | 0.428 | 0.5 | – | – | – | – | 0.401 | 0.368 | 0.45 | 0.395
